In patent US20230192607A1, “TRANSCRIPTIONAL ENHANCED ASSOCIATE DOMAIN (TEAD) TRANSCRIPTION FACTOR INHIBITORS AND USES THEREOF” (Dana-Farber Cancer Institute, Inc., priority 2019, published 2023):
“Also recorded” adds a separate entry of the source.

Tests used:
TEAD2 protein = TEAD2 protein (Homo sapiens, UniProt Q15562); experiment: Mass spectrometry analysis of covalent labeling of TEAD2 protein; type: binding; conditions: 20-fold molar excess, 6 hours at 37° C.
Experimental: TEAD2 protein was incubated with DMSO or a 20-fold molar excess of MYF-01-37 for 6 hours at 37° C. Reactions were then analyzed by LC-MS using a Shimadzu autosampler and LC (Marlborough, MA) coupled to an LTQ ion trap mass spectrometer (ThermoFisher Scientific, San Jose, CA). Protein was injected onto a self packed column (0.5 mm I.D., packed 5 cm POROS 50R2 from Applied Biosystems, Framingham, MA), desalted for 4 minutes with 100% A (A=0.2 M acetic acid in water), eluted with a gradient (0-100% B in 1 minute; A=0.2 M acetic acid in water, B=0.2 M acetic acid in acetonitrile), and introduced to the mass spectrometer by electrospray ionization (spray voltage=4.5 kV). The mass spectrometer acquired full scan MS data (m/z 300-2000). […]
To identify the site of modification, labeled protein was diluted 1:1 with 100 mM ammonium bicarbonate, reduced with 10 mM DTT at 56° C. for 30 minutes, alkylated with 22.5 mM IAA for 30 minutes at room temperature, and then digested with trypsin overnight at 37° C. Tryptic peptides were desalted by C18 (SOLA, ThermoFisher Scientific), dried by vacuum centrifugation, reconstituted in 5% MeCN, 0.1% trifluoroacetic acid, and analyzed by nanoLC-ion mobility MS/MS using a NanoAcquity UPLC system (Waters Corp., Milford, MA) interfaced to a timsTOF Pro mass spectrometer (Bruker, Billerica, MA). […]

[1] = test system: EGFR-mutant NSCLC cell lines; experiment: Cell viability assay (Cell Titer Glo); type: cell-based, human; conditions: several EGFR-mutant NSCLC cell lines
CTGF expression = experiment: QPCR analysis of YAP target gene CTGF expression; type: cell-based, human; conditions: 24 hour treatment; for CTGF expression in cells overexpressing TEAD1 C359S mutant: PC-9 cells transduced with TEAD1 C359S
YAP/TEAD interaction = YAP/TEAD interaction assay (split Gaussia luciferase); type: cell-based; conditions: HEK 293T cells
Experimental: 293T cells were plated in 24-well plates and transfected with N-GLuc-YAP and C-GLuc-TEAD using TransIT-293 (Mirus Bio). The pCMV-Red Firefly Luc Vector (Life Technologies) was used as an internal control. Cells were treated with indicated concentrations of compounds or vehicle control (DMSO) in duplicates. Luciferase activity was measured by Dual-Luciferase Assay (Promega, Madison, WI) according to the manufacturer’s manual.

TEAD = experiment: Competition pulldown with biotinylated MYF-01-37; type: cell-based; conditions: MDA-MB-231 cells pretreated 6 hours with 10, 25 and 50 µM
Experimental: MDA-MB-231 cells were incubated for 6 hours with 10, 25 and 50 µM MYF-01-37, followed by cell lysis. The lysates were subjected to pulldown with 50 µM biotinylated MYF-01-37 overnight, and the amount of TEAD pulled down was analyzed by western blotting.

[2] = test system: EGFR-mutant NSCLC cell lines; experiment: Regrowth after drug washout and count of viable dormant cells; type: cell-based, human
Experimental: To determine number of dormant cells after treatment, viable cells were manually counted from the Incucyte images. A total of 10-12 wells with 3 images per well was analyzed for each condition.

BMF expression = experiment: QPCR analysis of BMF expression; type: cell-based, human; conditions: combined with osimertinib/trametinib, 24 hour treatment
Experimental: Cells were plated at 15 × 10^4 cells / cm^2, treated the next day, and RNA samples were extracted at specified timepoints using the RNeasy Mini kit (Qiagen). The RNA concentrations were measured with Nanodrop (Thermo Fisher Scientific) and 1 µg of total RNA was used for cDNA synthesis using the QuantiTect Reverse Transcription Kit (Qiagen). The QPCR reactions were set up in 20 µl using Taqman Gene Expression Master Mix (Applied Biosystems, cat. 4369016), Taqman Gene Expression Assays (Applied Biosystems) as per manufacturer’s instructions, and 2 µl of 1:10 diluted cDNA. The following Taqman Gene Expression Assays were used in the study: CTGF (Hs01026927_ml), ANKDR1 (Hs00173317_ml), BMF (Hs00372937 _m1), SNAI1(Hs00195591_m1), SNAI2 (Hs00161904_m1), TWIST1 (Hs00361186_m1), TWIST2 (Hs02379973_s1), ZEB1 (Hs00232783_m1), ZEB2 (Hs00207691_m1), and ACTB (Hs01060665_g1). The reactions were run in StepOne Plus Real-time PCR System (Applied Biosystems) using default reaction settings. The gene expression levels were normalized to ACTB housekeeping gene expression levels in each sample. For the analysis of BMF expression in vivo, RNA was extracted from 25-30 mg snap-frozen tumor samples using RNeasy Mini kit according to the kit protocol. Reverse transcription and gene expression analyses were performed as above.

[3] = test system: YAP activity in PC-9 YAP reporter cells; experiment: Fluorescent YAP/Hippo pathway reporter assay (Incucyte live-cell imaging); type: cell-based, human; conditions: for YAP activity (reporter) induced by osimertinib/trametinib: compound added to osimertinib/trametinib
Experimental: YAP activity -induced mCherry expression was quantified using the Incucyte ZOOM live-cell analysis system. The mCherry signal was normalized to well confluency at each time point. For simultaneous detection of YAP activity and apoptosis, the cells were plated as above, and treated in the presence of CellEvent™ Caspase-3/7 Green ReadyProbes™ Reagent (Molecular Probes) as per manufacturer’s instructions. The mCherry signal as well as the green fluorescence signal was quantified every 2 hours using Incucyte ZOOM.

EGFR-mutant NSCLC cells = experiment: Caspase-3/7 activity monitoring (apoptosis); type: cell-based, human; conditions: combined with osimertinib/trametinib vs osimertinib/trametinib alone
Experimental: Cells were plated into 96-well plates at 3000 cells/well in 100 µl of growth medium. The next day, drugs were added onto cells in 50 µl containing CellEvent™ Caspase-3/7 Green ReadyProbes™ Reagent (Molecular Probes) as per manufacturer’s instructions (n=5-6 wells / condition). The wells were subsequently scanned every 2 hours using the Incucyte ZOOM live cell analysis system (Essen Bioscience) typically for a total of 72 hours. The acquired fluorescent signal for activated caspase-3/7 was normalized with well confluency at each timepoint (=normalized apoptosis). Peak apoptosis was determined as the highest normalized caspase-3/7 activity value during the assay.

PC-9 cells = experiment: Long-term cell growth assay (well confluency, Incucyte); conditions: continuous treatment with single-agent osimertinib (100 nM)
[4] = test system: PC-9, HCC827 and HCC4006 cells
Experimental: PC-9, HCC827 and HCC4006 were plated into 6-well plates at 50 000 cells / well, and treated the next day with DMSO, 100 nM osimertinib or with the combination of 100 nM osimertinib and 30 nM trametinib in triplicate. […] After staining, cells were imaged (5 images / well), and stained cells were manually counted from the images.

Sequence of TEAD2 protein (Q15562 whole entry): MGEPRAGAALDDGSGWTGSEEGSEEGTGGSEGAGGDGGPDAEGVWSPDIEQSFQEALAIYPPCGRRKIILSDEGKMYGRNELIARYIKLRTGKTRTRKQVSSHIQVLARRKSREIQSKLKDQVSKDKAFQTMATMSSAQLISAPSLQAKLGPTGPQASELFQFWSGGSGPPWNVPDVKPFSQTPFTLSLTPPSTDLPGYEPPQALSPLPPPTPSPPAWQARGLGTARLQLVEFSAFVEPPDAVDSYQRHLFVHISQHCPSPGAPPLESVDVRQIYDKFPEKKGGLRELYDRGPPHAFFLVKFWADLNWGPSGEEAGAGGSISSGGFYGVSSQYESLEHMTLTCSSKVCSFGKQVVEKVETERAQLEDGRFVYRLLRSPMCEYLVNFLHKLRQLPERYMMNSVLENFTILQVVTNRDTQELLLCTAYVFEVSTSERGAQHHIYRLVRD

C=CC(=O)N1CCC(Nc2cccc(C(F)(F)F)c2C)C1 (centres unmarked) [MYF-01-37]
site of covalent modification (TEAD2 protein): targeted cysteine 380 | cell viability as a single agent [1]: minimal impact on cell viability; also recorded: did not demonstrate single-agent toxicity | CTGF expression in cells overexpressing TEAD1 C359S mutant (CTGF expression): abrogated | CTGF expression (CTGF expression; PC-9 cells): reduction in canonical YAP target gene CTGF expression | YAP/TEAD interaction (YAP/TEAD interaction): inhibition of direct YAP/TEAD interaction | TEAD pull-down by biotinylated MYF-01-37 from whole-cell lysate (TEAD): loss of direct TEAD pull-down | dormant cells after treatment ([2]; PC-9 and HCC4006 cells, 10-day treatment in combination with osimertinib/trametinib vs osimertinib/trametinib alone): dramatic decrease in dormant cells | regrowth after one week triple combination followed by two weeks osimertinib/trametinib vs three-week continuous triple combination ([2]; PC-9 cells): identical potency | BMF expression (BMF expression): robust increase in BMF expression | YAP activity (reporter) induced by osimertinib/trametinib [3]: completely suppressed the increased YAP activity | apoptosis (EGFR-mutant NSCLC cells): significantly increased apoptosis

O=C(CCl)c1ccccc1Nc1cccc(C(F)(F)F)c1 [TED-347]
cell viability as a single agent [1]: significant toxicity

O=c1[nH]c(-c2ccc(C(F)(F)F)cc2)nc2c1CSCC2 [XAV939]
CTGF expression in cells overexpressing TEAD1 C359S mutant (CTGF expression): still able to inhibit CTGF expression | regrowth after one week triple combination followed by two weeks osimertinib/trametinib vs three-week continuous triple combination ([2]; PC-9 cells): identical potency | number of dormant cells at the time of drug washout ([2]; PC-9 cells, 21-day treatment combined with osimertinib/trametinib vs osimertinib/trametinib alone): dramatic decrease in the number of dormant cells | regrowth of cells after drug washout ([2]; three-week treatment combined with osimertinib/trametinib, then washout): significant reduction in regrowth | BMF expression (BMF expression): significantly increased BMF expression | YAP activity (reporter) induced by osimertinib/trametinib [3]: completely blocked | apoptosis (EGFR-mutant NSCLC cells): robust increase in apoptosis

C=CC(=O)Nc1cc(Nc2nccc(-c3cn(C)c4ccccc34)n2)c(OC)cc1N(C)CCN(C)C [osimertinib]
time to re-colonization of wells (PC-9 cells): ≤ 8 weeks | cells positive for SA-β-Gal activity [4]: significantly smaller proportion | proportion of YAP^high cells ([3]; 10-day treatment): 40% | proportion of cells with absent YAP signal ([3]; 10-day treatment): 60%
